The subject of assay [1] is Pseudotyped HCV GT1b particles (HCVpp), entry into Huh7-high CD81 cells. In words: microbe, parasite or virus in culture. The assay is classed as cell-based, HCV GT1b Con1 strain. To be noted: Hepatitis C virus, GT1B, 72 h, read-out: HCVpp GT-1b (EC50, μM).
Assay [2] relates to pseudotyped VSV G particles (VSVpp) in Huh7-high CD81 cells. Put plainly: microbe, parasite or virus in culture. The assay is classed as cell-based, vesicular stomatitis virus. To be noted: Vesicular stomatitis virus, 72 h, read-out: VSVpp (EC50, μM).

Where a name gives a salt, the structure may show the parent alone. Some results are limits rather than exact numbers.

As to `Nc1nc(Nc2cc(Cl)c(-c3ccc(S(=O)(=O)CC4CCCNC4)cc3)c(C(F)(F)F)c2)n[nH]1` (stereo not drawn) [Compound 25, N*3*-[2-Chloro-4′-(piperidin-3-ylmethanesulfonyl)-6-trifluoromethyl-biphenyl-4-yl]-1H-[1,2,4]triazole-3,5-diamine; hydrochloride], the results for the half-maximal effective concentration (EC50) in assay [1] and in assay [2] were 0.059 µM and more than 10 µM, respectively.

Consider `Nc1nc(Nc2cc(Cl)c(-c3ccc(S(=O)(=O)NC[C@@H]4CCCN4)cc3)c(C(F)(F)F)c2)n[nH]1` [Compound 27, 4′-(5-Amino-1H-[1,2,4]triazol-3-ylamino)-2′-chloro-6′-trifluoromethyl-biphenyl-4-sulfonic acid ((S)-1-pyrrolidin-2-ylmethyl)-amide; hydrochloride], for which the results for the EC50 in assay [1] and in assay [2] were 0.052 µM and 30.1 µM, respectively.

As to `CS(=O)(=O)Nc1ccc(-c2c(Cl)cc(Nc3n[nH]c(N)n3)cc2Cl)c(F)c1` [Compound 28, N-[4′-(5-Amino-1H-[1,2,4]triazol-3-ylamino)-2′,6′-dichloro-2-fluoro-biphenyl-4-yl]-methanesulfonamide], the EC50 (as a rule, the midpoint of the concentration-response curve) in assay [1] amounted to 0.083 µM; in assay [2], 4.02 µM.

Take `Nc1nc(Nc2cc(Cl)c(-c3ccc(S(=O)(=O)C4CCCNC4)cc3)c(C(F)(F)F)c2)n[nH]1` (stereo not drawn) [Compound 29, N*3*-[2-Chloro-4′-(piperidine-3-sulfonyl)-6-trifluoromethyl-biphenyl-4-yl]-1H-[1,2,4]triazole-3,5-diamine; hydrochloride]: the figures for the EC50 in assay [1] and in assay [2] were 0.09 µM and 3.53 µM, respectively.

Turning to `CS(=O)(=O)c1ccc(-c2c(F)cc(Nc3n[nH]c(N)n3)cc2Cl)cc1` [Compound 30, N*3*-(2-Chloro-6-fluoro-4′-methanesulfonyl-biphenyl-4-yl)-1H-[1,2,4]triazole-3,5-diamine], the EC50 is 0.107 µM in assay [1] and 1.53 µM in assay [2].

In the case of `Nc1nc(Nc2cc(Cl)c(-c3ccc(S(=O)(=O)C[C@@H]4CCCN4)cc3)c(C(F)(F)F)c2)n[nH]1` [Compound 35, N*3*-[2-Chloro-4′-((S)-1-pyrrolidin-2-ylmethanesulfonyl)-6-trifluoromethyl-biphenyl-4-yl]-1H-[1,2,4]triazole-3,5-diamine; hydrochloride], the EC50 in assay [1] stood at 0.127 µM; in assay [2], 4.79 µM.

Turning to `Nc1nc(Nc2cc(Cl)c(-c3ccc(S(=O)(=O)N4CCOCC4)cc3)c(C(F)(F)F)c2)n[nH]1` [Compound 36, N*3*-[2-Chloro-4′-(morpholine-4-sulfonyl)-6-trifluoromethyl-biphenyl-4-yl]-1H-[1,2,4]triazole-3,5-diamine], the concentration giving a half-maximal response (EC50) stood at 0.096 µM in assay [1] and 14.2 µM in assay [2].

On to `Nc1nc(Nc2cc(Cl)c(-c3ccc(OCC4CNC4)cc3)c(C(F)(F)F)c2)n[nH]1` [Compound 37, N*3*-[4′-(Azetidin-3-ylmethoxy)-2-chloro-6-trifluoromethyl-biphenyl-4-yl]-1H-[1,2,4]triazole-3,5-diamine; hydrochloride], for which the EC50 is 0.107 µM in assay [1] and more than 10 µM in assay [2].

Consider `CS(=O)(=O)NCCc1ccc(-c2c(Cl)cc(Nc3n[nH]c(N)n3)cc2C(F)(F)F)cc1` [Compound 38, N-{2-[4′-(5-Amino-1H-[1,2,4]triazol-3-ylamino)-2′-chloro-6′-trifluoromethyl-biphenyl-4-yl]-ethyl}-methanesulfonamide], for which the values for the EC50 in assay [1] and in assay [2] were 0.087 µM and 7.01 µM, respectively.

In the case of `Nc1nc(Nc2cc(Cl)c(-c3ccc(S(=O)(=O)CC4CCNCC4)cc3)c(C(F)(F)F)c2)n[nH]1` [Compound 40, N*3*-[2-Chloro-4′-(piperidin-4-ylmethanesulfonyl)-6-trifluoromethyl-biphenyl-4-yl]-1H-[1,2,4]triazole-3,5-diamine; hydrochloride], the EC50 in assay [1] was 0.073 µM; in assay [2], 31.7 µM.

Regarding `Nc1nc(Nc2cc(Cl)c(-c3cccc(OC4CCNCC4)c3)c(C(F)(F)F)c2)n[nH]1` [Compound 41, N*3*-[2-Chloro-3′-(piperidin-4-yloxy)-6-trifluoromethyl-biphenyl-4-yl]-1H-[1,2,4]triazole-3,5-diamine; hydrochloride], the 50% effective concentration (EC50) in assay [1] is 0.166 µM; in assay [2], more than 10 µM.

Regarding `CS(=O)(=O)n1ccc2cc(-c3c(Cl)cc(Nc4n[nH]c(N)n4)cc3Cl)ccc21` [Compound 42, N*3*-[3,5-Dichloro-4-(1-methanesulfonyl-1H-indol-5-yl)-phenyl]-1H-[1,2,4]triazole-3,5-diamine], the EC50 turned out to be 0.212 µM in assay [1] and 2.27 µM in assay [2].

Consider `Nc1nc(Nc2cc(Cl)c(-c3ccc(N4CCCC4=O)cc3)c(Cl)c2)n[nH]1` [Compound 43, 1-[4′-(5-Amino-1H-[1,2,4]triazol-3-ylamino)-2′,6′-dichloro-biphenyl-4-yl]-pyrrolidin-2-one], for which the half-maximal effective concentration (EC50) was found to be 0.169 µM in assay [1] and 15.4 µM in assay [2].

Consider `CS(=O)(=O)N1CCOc2ccc(-c3c(Cl)cc(Nc4n[nH]c(N)n4)cc3C(F)(F)F)cc21` [Compound 44, N*3*-[3-Chloro-4-(4-methanesulfonyl-3,4-dihydro-2H-benzo[1,4]oxazin-6-yl)-5-trifluoromethyl-phenyl]-1H-[1,2,4]triazole-3,5-diamine], for which the values for the EC50 in assay [1] and in assay [2] were 0.236 µM and 4.92 µM, respectively.

Consider `Nc1nc(Nc2cc(Cl)c(-c3ccc(S(=O)(=O)N4CCS(=O)(=O)CC4)cc3)c(C(F)(F)F)c2)n[nH]1` [Compound 45, N*3*-[2-Chloro-4′-(1,1-dioxo-1lambda*6*-thiomorpholine-4-sulfonyl)-6-trifluoromethyl-biphenyl-4-yl]-1H-[1,2,4]triazole-3,5-diamine], for which the concentration giving a half-maximal response (EC50) in assay [1] is 0.101 µM; in assay [2] it was more than 10 µM.

`CS(=O)(=O)Nc1ccc(-c2c(Cl)cc(Nc3n[nH]c(N)n3)cc2Cl)cc1F` [Compound 46, N-[4′-(5-Amino-1H-[1,2,4]triazol-3-ylamino)-2′,6′-dichloro-3-fluoro-biphenyl-4-yl]-methanesulfonamide]: the figures for the 50% effective concentration (EC50) in assay [1] and in assay [2] were 0.414 µM and more than 10 µM, respectively.

With `Nc1nc(Nc2cc(Cl)c(-c3ccc4c(c3)NC(=O)CO4)c(C(F)(F)F)c2)n[nH]1` [Compound 47, 6-[4-(5-Amino-1H-[1,2,4]triazol-3-ylamino)-2-chloro-6-trifluoromethyl-phenyl]-4H-benzo[1,4]oxazin-3-one], the EC50 in assay [1] was 0.544 µM; in assay [2] it was 0.82 µM.

Regarding `NCCCCOc1ccc(-c2c(Cl)cc(Nc3n[nH]c(N)n3)cc2Cl)cc1` [Compound 49, N*3*-[4′-(4-Amino-butoxy)-2,6-dichloro-biphenyl-4-yl]-1H-[1,2,4]triazole-3,5-diamine; trifluoro-acetate], the results for the EC50 in assay [1] and in assay [2] were 0.455 µM and more than 10 µM, respectively.

As to `Nc1ccc(-c2c(Cl)cc(Nc3n[nH]c(N)n3)cc2Cl)cc1` [Compound 50, N*3*-(4′-Amino-2,6-dichloro-biphenyl-4-yl)-1H-[1,2,4]triazole-3,5-diamine], the half-maximal effective concentration (EC50) in assay [1] is 0.689 µM; in assay [2], more than 10 µM.

`Nc1nc(Nc2cc(Cl)c(-c3ccc(S(=O)(=O)N4CCC[C@H]4C(=O)O)cc3)c(C(F)(F)F)c2)n[nH]1` [Compound 51, (S)-1-[4′-(5-Amino-1H-[1,2,4]triazol-3-ylamino)-2′-chloro-6′-trifluoromethyl-biphenyl-4-sulfonyl]-pyrrolidine-2-carboxylic acid]: the EC50 in assay [1] was 0.678 µM; in assay [2] it was more than 10 µM.

As for `CC1(C)CS(=O)(=O)c2cc(-c3c(Cl)cc(Nc4n[nH]c(N)n4)cc3Cl)ccc2O1` [Compound 52, N*3*-[3,5-Dichloro-4-(2,2-dimethyl-4,4-dioxo-3,4-dihydro-2H-4lambda*6*-benzo[1,4]oxathiin-6-yl)-phenyl]-1H-[1,2,4]triazole-3,5-diamine], the EC50 is 0.64 µM in assay [1] and more than 10 µM in assay [2].

Consider `CCCCC(=O)Nc1ccc(-c2ccc(Nc3n[nH]c(N)n3)cc2)cc1` [Compound 53, Pentanoic acid [4′-(5-amino-1H-[1,2,4]triazol-3-ylamino)-biphenyl-4-yl]-amide], for which the EC50 in assay [1] came out at 5.61 µM; in assay [2], 4.38 µM.

Consider `CC(C)(C)CCN1CCCC(CS(=O)(=O)c2ccc(-c3c(Cl)cc(Nc4n[nH]c(N)n4)cc3C(F)(F)F)cc2)C1` (stereo not drawn) [Compound 56, N*3*-{2-Chloro-4′-[1-(3,3-dimethyl-butyl)-piperidin-3-ylmethanesulfonyl]-6-trifluoromethyl-biphenyl-4-yl}-1H-[1,2,4]triazole-3,5-diamine; hydrochloride], for which the EC50 was 0.046 µM in assay [1] and 3.74 µM in assay [2].

On to `CC(C)(C)CCN1CCC(CS(=O)(=O)c2ccc(-c3c(Cl)cc(Nc4n[nH]c(N)n4)cc3C(F)(F)F)cc2)CC1` [Compound 57, N*3*-{2-Chloro-4′-[1-(3,3-dimethyl-butyl)-piperidin-4-ylmethanesulfonyl]-6-trifluoromethyl-biphenyl-4-yl}-1H-[1,2,4]triazole-3,5-diamine; hydrochloride], for which the 50% effective concentration (EC50) in assay [1] came out at 0.049 µM; in assay [2], 2.45 µM.

On to `CC(C)(C)NCc1ccc(-c2c(Cl)cc(Nc3n[nH]c(N)n3)cc2C(F)(F)F)cc1` [Compound 58, N*3*-[4′-(tert-Butylamino-methyl)-2-chloro-6-trifluoromethyl-biphenyl-4-yl]-1H-[1,2,4]triazole-3,5-diamine; hydrochloride], for which the 50% effective concentration (EC50) in assay [1] turned out to be 0.086 µM; in assay [2], 4.56 µM.

`CC(C)(C)OC(=O)N1CC(S(=O)(=O)c2ccc(-c3c(Cl)cc(Nc4n[nH]c(N)n4)cc3C(F)(F)F)cc2)C1` [Compound 59, 3-[4′-(5-Amino-1H-[1,2,4]triazol-3-ylamino)-6′-chloro-2′-trifluoromethyl-biphenyl-4-sulfonyl]-azetidine-1-carboxylic acid tert-butyl ester]: the values for the EC50 in assay [1] and in assay [2] were 0.008 µM and 5.78 µM, respectively.

As to `CC1(NS(=O)(=O)c2ccc(-c3c(Cl)cc(Nc4n[nH]c(N)n4)cc3C(F)(F)F)cc2)COC1` [Compound 60, 4′-(5-Amino-1H-[1,2,4]triazol-3-ylamino)-6′-chloro-2′-trifluoromethyl-biphenyl-4-sulfonic acid (3-methyl-oxetan-3-yl)-amide], the concentration giving a half-maximal response (EC50) is 0.014 µM in assay [1] and more than 10 µM in assay [2].

For the origin of these results see patent publication US9693997B2, “Antiviral compounds” (priority 2013, dated 2017).
